Laboratory results reported in patent publication US20160238590A1, “COMPOSITIONS AND METHODS RELATED TO OAT SENSITIVITY” (IMMUSANT, INC., priority 2013, published 2016).
Where no end group is shown, it is not given here. [ ]: non-standard residue; d: D form. pGlu = O=C1CC[C@@H](C(=O)O)N1

How the values were obtained:
Type in all cases: cell-based, human
[1] = tested on: Patient 14 TCC-01; experiment: IFN-γ ELISpot with T cell clone; conditions: TCC Patient 14 TCC-01 (Table 5); mean no antigen 11.3, high background, SFU >25 considered as positive responses
Protocol: (§1) Peripheral blood mononuclear cells (PBMC) were isolated from heparinized whole blood using Ficoll-Paque™ Plus density-gradient centrifugation (GE Healthcare). IFN-γ ELISpot (Mabtech) was set up as previously described^8.
(§2) Isolation of TCC from CD patients was carried out as previously described^8. Briefly, CFSE-labeled PBMC were incubated with antigen for 7 days in IMDM supplemented with 5% heat-inactivated pooled human serum (PHS), 2 mM GlutaMAX™, 100 μM MEM non-essential amino acids (both from Gibco, Invitrogen), and 50 μM 2-mercaptoethanol (Sigma). Proliferated cells were single-cell sorted into 96-well plates containing IL-2, IL-4, anti-CD3 mAb, irradiated feeder cells (allogeneic PBMC and JY-EBV). TCC were expanded and maintained in IL-2 and IL-4 and tested for specificity by ELISpot with irradiated HLA-matched PBMC as antigen-presenting cells. Expanded clones were tested for HLA-DQ restriction, TCR Vbeta usage, and with lysine scans to work out minimal epitopes. See Table 1 below for TCC and epitope information.

[2] = tested on: Patient 2 TCC-01; experiment: IFN-γ ELISpot with T cell clone; conditions: TCC Patient 2 TCC-01 (Table 5); mean no antigen 1.1
Protocol: as §1, §2

[3] = tested on: Patient 6 TCC-01; experiment: IFN-γ ELISpot with T cell clone; conditions: TCC Patient 6 TCC-01 (Table 5); mean no antigen 2
Protocol: as §1, §2

[4] = tested on: PBMC; experiment: IFN-γ ELISpot on PBMC of CD patients after 3-day barley challenge; conditions: after barley challenge
Text: (§3) Australian Caucasian HLA-DQ2.5^+ and/or HLA-DQ8^+ CD subjects were recruited by advertisement in the Coeliac Society of Victoria newsletter and all had biopsy-proven CD conforming to ESPGHAN criteria. Patients had been on strict gluten free diet for at least 4 weeks prior to commencing grain challenge. Patients underwent 3-day grain challenge with oats, barley, or combined wheat, barley, and rye muffins, and 6 days after commencement, blood was collected. Day 0 responses were not observed in the selection of patients tested, as described previously^8.
(§4) Oats challenge consisted of 100 g dry weight daily of one of three commercial brands of oats: one not tested for wheat contamination (Uncle Toby's; Oats #1), and two shown by R5 ELISA to contain less than 20 ppm wheat gluten (Tilquhilie Pudding; Oats #2 and Freedom Food; Oats #3). Barley challenge consisted of pearl barley (Ward McKenzie) cooked into a risotto (150 g dry weight daily) and the wheat challenge consisted of four 50 g slices of wheat bread daily (Baker's Delight white loaf cut to toasting thickness). The combined wheat, barley, and rye challenge consisted of muffins baked with wheat flour (White Wings), barley flour (Four Leaf Milling), and rye flour (Four Leaf Milling; 22-25 g dry weight each daily). A symptom diary based on a […] Likert scale was completed by participants daily from baseline until day 6.
(§5) Two avenin peptide libraries were utilized for epitope screening. These were designed using avenin sequences from GenBank and a customized algorithm, as previously described^9. The initial library consisted of 199 screening-grade 20 mers including all possible 12 mers (Mimotopes). This library was screened with and without tTG pre-treatment. The second library consisted of additional avenin sequences that were synthesized with glutamate substitution at sites predicted to be deamidated by published algorithms^10, 11 removing the requirement for tTG treatment. This library contained 369 screening-grade 20 mers, including all possible 12 mers (Pepscan). The second round avenin library contained wild-type and deamidated versions of the most immunogenic sequences (25 high quality 16 mers from Mimotopes). High quality peptides containing previously described immunogenic sequences from wheat, barley, and rye were used to test for cross-reactivity^8 (Pepscan). High quality hordein and avenin peptides for TCC testing and biochemical studies were ordered from Pepscan, Mimotopes, or GL Biochem.
as §1

[5] = tested on: PBMC; experiment: IFN-γ ELISpot on PBMC of CD patients on day 6 after 3-day oats challenge; conditions: for IFN-γ ELISpot response (raw SFU) / significant SFU as a percentage of maximal peptide SFU: after 3-day oats challenge
Text: as §3, §4, §5, §1

Row | Substance | IFN-γ ELISpot response (raw SFU) [1] [SFU] | IFN-γ ELISpot response (raw SFU) [2] [SFU] | IFN-γ ELISpot response (raw SFU) [3] [SFU] | IFN-γ ELISpot response (raw SFU) ([4]; Patient 1, peptide 50 μg/ml) [SFU] | significant SFU as a percentage of maximal peptide SFU ([4]; Patient 1, peptide 50 μg/ml) | IFN-γ ELISpot response (raw SFU) ([4]; Patient 2, peptide 50 μg/ml) [SFU] | significant SFU as a percentage of maximal peptide SFU ([4]; Patient 2, peptide 50 μg/ml) | IFN-γ ELISpot response (raw SFU) ([4]; Patient 3, peptide 50 μg/ml) [SFU] | significant SFU as a percentage of maximal peptide SFU ([4]; Patient 3, peptide 50 μg/ml) | further results
1 | pEQPFPQPEQPQLPF ([pGlu]QPFPQPEQPQLPF) [wheat peptide, AAK84772.1 (126-139) [Q126 to pyroglutamate, Q133 to E], reference compound] | 14 | 4 | 23 | – | – | – | – | – | – | –
2 | pEQPFPQPEQPTPIQ ([pGlu]QPFPQPEQPTPIQ) [rye peptide, AAB58403.1 (65-78) [Q65 to pyroglutamate, Q72 to E], reference compound] | 20 | 1 | 34 | – | – | – | – | – | – | –
3 | pEQPFPEQPFPEQPQPY ([pGlu]QPFPEQPFPEQPQPY) [barley peptide, AFM77740.1 (21-36) [Q21 to pyroglutamate, Q26 to E, Q31 to E]] | 27 | 229 | 64 | – | – | – | – | – | – | –
4 | PSEQYQPYPEQEQPILQQEE [avenin library peptide] | – | – | – | 27 | (^: 5-10%) | 159 | *** (***: >70%) | 7 | – | –
5 | SEQYQPYPEQEQPFLQEQPL [avenin library peptide] | – | – | – | 122 | * (*: 20-40%) | 208 | *** (***: >70%) | 34 | * (*: 20-40%) | –
6 | EQYQPYPEQQPFMQPL [avenin peptide] | – | – | – | 19 | (^: 5-10%) | 25 | ^^ (^^: 10-20%) | 33 | * (*: 20-40%) | IFN-γ ELISpot response (raw SFU) ([5]; patient P1, peptide 1 μg/ml): 0 SFU; IFN-γ ELISpot response (raw SFU) ([5]; patient P1, peptide 10 μg/ml): 0 SFU; IFN-γ ELISpot response (raw SFU) ([5]; patient P1, peptide 100 μg/ml): 4 SFU; IFN-γ ELISpot response (raw SFU) ([5]; patient P2, peptide 1 μg/ml): 0 SFU; IFN-γ ELISpot response (raw SFU) ([5]; patient P2, peptide 10 μg/ml): 3 SFU; IFN-γ ELISpot response (raw SFU) ([5]; patient P2, peptide 100 μg/ml): 49 SFU; significant SFU as a percentage of maximal peptide SFU ([5]; patient P2, peptide 100 μg/ml): *** (***: >70%); IFN-γ ELISpot response (raw SFU) ([5]; patient P3, peptide 1 μg/ml): 3 SFU; IFN-γ ELISpot response (raw SFU) ([5]; patient P3, peptide 10 μg/ml): 18 SFU; significant SFU as a percentage of maximal peptide SFU ([5]; patient P3, peptide 10 μg/ml): * (*: 20-40%); IFN-γ ELISpot response (raw SFU) ([5]; patient P3, peptide 100 μg/ml): 5 SFU; IFN-γ ELISpot response (raw SFU) ([5]; patient P11, peptide 1 μg/ml): 3 SFU; IFN-γ ELISpot response (raw SFU) ([5]; patient P11, peptide 10 μg/ml): 0 SFU; IFN-γ ELISpot response (raw SFU) ([5]; patient P11, peptide 100 μg/ml): 54 SFU; significant SFU as a percentage of maximal peptide SFU ([5]; patient P11, peptide 100 μg/ml): *** (***: >70%); IFN-γ ELISpot response (raw SFU) ([5]; patient P12, peptide 1 μg/ml): 0 SFU; IFN-γ ELISpot response (raw SFU) ([5]; patient P12, peptide 10 μg/ml): 2 SFU; IFN-γ ELISpot response (raw SFU) ([5]; patient P12, peptide 100 μg/ml): 31 SFU; significant SFU as a percentage of maximal peptide SFU ([5]; patient P12, peptide 100 μg/ml): ** (**: 40-70%); IFN-γ ELISpot response (raw SFU) ([5]; patient P13, peptide 50 μg/ml): 0 SFU
7 | pEPEQIIPEQPEQPS ([pGlu]PEQIIPEQPEQPS) [rye peptide, AAB58403.1 (195-208) [Q195 to pyroglutamate, Q202 to E, Q205 to E], reference compound] | 59 | 2 | 3 | – | – | – | – | – | – | –
8 | pEQPQPYPEQPQPYP ([pGlu]QPQPYPEQPQPYP) [barley peptide, AFM77740.1 (31-44) [Q31 to pyroglutamate, Q38 to E]] | 27 | 316 | 52 | – | – | – | – | – | – | –
9 | QPYPEQEQPILEEELLLQQQ [oats avenin peptide, CBL51491.1 (22-41) [Q28, Q33, Q34, Q35 to E]; one of two coded A01] | – | 275 | 16 | – | – | – | – | – | – | –
10 | PQPFPEQPIPEQPQPY [barley peptide, 1103203A (27-42) [Q32 to E, Q37 to E]] | 38 | 1 | 60 | – | – | – | – | – | – | –
11 | AQFDPSEQYQPYPEQQQPIL [avenin library peptide] | – | – | – | 35 | ^^ (^^: 10-20%) | 159 | *** (***: >70%) | 24 | ^^ (^^: 10-20%) | –
12 | SEQYQPYPEQQEPFVQ [avenin peptide of Genbank Q09097.1, wild-type] | – | – | – | – | – | – | – | – | – | IFN-γ ELISpot response (raw SFU) ([5]; patient P1, peptide 1 μg/ml): 3 SFU; IFN-γ ELISpot response (raw SFU) ([5]; patient P1, peptide 10 μg/ml): 5 SFU; IFN-γ ELISpot response (raw SFU) ([5]; patient P1, peptide 100 μg/ml): 3 SFU; IFN-γ ELISpot response (raw SFU) ([5]; patient P2, peptide 1 μg/ml): 3 SFU; IFN-γ ELISpot response (raw SFU) ([5]; patient P2, peptide 10 μg/ml): 3 SFU; IFN-γ ELISpot response (raw SFU) ([5]; patient P2, peptide 100 μg/ml): 16 SFU; significant SFU as a percentage of maximal peptide SFU ([5]; patient P2, peptide 100 μg/ml): * (*: 20-40%); IFN-γ ELISpot response (raw SFU) ([5]; patient P3, peptide 1 μg/ml): 8 SFU; IFN-γ ELISpot response (raw SFU) ([5]; patient P3, peptide 10 μg/ml): 9 SFU; IFN-γ ELISpot response (raw SFU) ([5]; patient P3, peptide 100 μg/ml): 4 SFU; IFN-γ ELISpot response (raw SFU) ([5]; patient P11, peptide 1 μg/ml): 0 SFU; IFN-γ ELISpot response (raw SFU) ([5]; patient P11, peptide 10 μg/ml): 0 SFU; IFN-γ ELISpot response (raw SFU) ([5]; patient P11, peptide 100 μg/ml): 0 SFU; IFN-γ ELISpot response (raw SFU) ([5]; patient P12, peptide 1 μg/ml): 1 SFU; IFN-γ ELISpot response (raw SFU) ([5]; patient P12, peptide 10 μg/ml): 3 SFU; IFN-γ ELISpot response (raw SFU) ([5]; patient P12, peptide 100 μg/ml): 0 SFU; IFN-γ ELISpot response (raw SFU) ([5]; patient P13, peptide 50 μg/ml): 9 SFU
13 | QYQPYPEQEQPILQQ [partially deamidated avenin peptide] | – | – | – | – | – | – | – | – | – | patients in which the peptide was the most immunogenic ([5]; oats responders after 3-day oats challenge): 5 patients
14 | EQYQPYPEQEQPFVQQQPPF [avenin library peptide] | – | 283 | 30 | 99 | * (*: 20-40%) | 192 | *** (***: >70%) | 14 | (^: 5-10%) | –
15 | EQYQPYPEEQPFMQPL [partially deamidated avenin peptide] | – | – | – | – | – | – | – | – | – | IFN-γ ELISpot response (raw SFU) ([5]; patient P1, peptide 1 μg/ml): 1 SFU; IFN-γ ELISpot response (raw SFU) ([5]; patient P1, peptide 10 μg/ml): 1 SFU; IFN-γ ELISpot response (raw SFU) ([5]; patient P1, peptide 100 μg/ml): 2 SFU; IFN-γ ELISpot response (raw SFU) ([5]; patient P2, peptide 1 μg/ml): 2 SFU; IFN-γ ELISpot response (raw SFU) ([5]; patient P2, peptide 10 μg/ml): 0 SFU; IFN-γ ELISpot response (raw SFU) ([5]; patient P2, peptide 100 μg/ml): 27 SFU; significant SFU as a percentage of maximal peptide SFU ([5]; patient P2, peptide 100 μg/ml): ** (**: 40-70%); IFN-γ ELISpot response (raw SFU) ([5]; patient P3, peptide 1 μg/ml): 0 SFU; IFN-γ ELISpot response (raw SFU) ([5]; patient P3, peptide 10 μg/ml): 2 SFU; IFN-γ ELISpot response (raw SFU) ([5]; patient P3, peptide 100 μg/ml): 2 SFU; IFN-γ ELISpot response (raw SFU) ([5]; patient P11, peptide 1 μg/ml): 0 SFU; IFN-γ ELISpot response (raw SFU) ([5]; patient P11, peptide 10 μg/ml): 0 SFU; IFN-γ ELISpot response (raw SFU) ([5]; patient P11, peptide 100 μg/ml): 1 SFU; IFN-γ ELISpot response (raw SFU) ([5]; patient P12, peptide 1 μg/ml): 0 SFU; IFN-γ ELISpot response (raw SFU) ([5]; patient P12, peptide 10 μg/ml): 0 SFU; IFN-γ ELISpot response (raw SFU) ([5]; patient P12, peptide 100 μg/ml): 0 SFU; IFN-γ ELISpot response (raw SFU) ([5]; patient P13, peptide 50 μg/ml): 0 SFU
16 | EQYQPYPEQQQPFLQQQPLE [avenin library peptide] | – | – | – | 25 | (^: 5-10%) | 196 | *** (***: >70%) | 24 | ^^ (^^: 10-20%) | –
